Laboratory results as given in the supplement of paper PMC7661543.
± gives the standard deviation of the averaged measurements.

How the values were obtained:
Assay in all cases: relative cell number vs DMSO control (72 h) (% of DMSO); higher = less growth inhibition (more cells)
Conditions in all cases: sgRNA knockout: sgNT
ZR-75-1 = test system: ZR-75-1
Method: (§1)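 QMAP-Seq: a pool of 5 breast cancer cell lines (ZR-75-1, SKBR3, HCC-38, MDA-MB-231, BT-20), each carrying 12 doxycycline-inducible Cas9 sgRNA perturbations (11 knockouts plus non-targeting sgNT), was treated with compounds for 72 h at four 10-fold doses (10 nM-10 uM or 1 nM-1 uM range). Barcodes were amplified and sequenced, and cell number was interpolated from 293T spike-in standard curves. The result is expressed as % of the median of DMSO wells. Two biological replicates.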

SKBR3 = test system: SKBR3
Method: as §1

BT-20 = test system: BT-20
Method: as §1

HCC-38 = test system: HCC-38
Method: as §1

MDA-MB-231 = test system: MDA-MB-231
Method: as §1

Structure (SMILES) | relative cell number (ZR-75-1; 10 nM) | relative cell number (ZR-75-1; 100 nM) | relative cell number (ZR-75-1; 1000 nM) | relative cell number (ZR-75-1; 10000 nM) | relative cell number (SKBR3; 10 nM) | relative cell number (SKBR3; 100 nM) | relative cell number (SKBR3; 1000 nM) | relative cell number (SKBR3; 10000 nM) | relative cell number (BT-20; 10 nM) | relative cell number (BT-20; 100 nM) | relative cell number (BT-20; 1000 nM) | relative cell number (BT-20; 10000 nM) | relative cell number (HCC-38; 10 nM) | relative cell number (HCC-38; 100 nM) | relative cell number (HCC-38; 1000 nM) | relative cell number (HCC-38; 10000 nM) | relative cell number (MDA-MB-231; 10 nM) | relative cell number (MDA-MB-231; 100 nM) | relative cell number (MDA-MB-231; 1000 nM) | relative cell number (MDA-MB-231; 10000 nM) | relative cell number (ZR-75-1; 1 nM) | relative cell number (SKBR3; 1 nM) | relative cell number (BT-20; 1 nM) | relative cell number (HCC-38; 1 nM) | relative cell number (MDA-MB-231; 1 nM)
O=C(O)C(Cc1c[nH]c2ccccc12)N1C(=O)c2ccccc2C1=O (stereo not given) [RG108] | 94.8 ± 3.9 | 76.2 ± 6.3 | 98.5 ± 2.5 | 71.4 ± 41 | 97.1 ± 11 | 64.7 ± 21 | 81 ± 16 | 73.2 ± 5.8 | 82.3 ± 16 | 70.3 ± 4.6 | 102 ± 4.9 | 102 ± 14 | 87.6 ± 8 | 88.2 ± 2.6 | 83.03 ± 0.26 | 97.2 ± 1.7 | 96.8 ± 28 | 96.5 ± 4 | 80.5 ± 17 | 79.7 ± 30 | – | – | – | – | –
CNC(=O)c1cc(Oc2ccc(NC(=O)Nc3ccc(Cl)c(C(F)(F)F)c3)c(F)c2)ccn1 [Regorafenib] | 81.3 ± 52 | 68.8 ± 21 | 98.2 ± 40 | 22.1 ± 1.5 | 84.4 ± 8.2 | 98.8 ± 11 | 101 ± 16 | 38.2 ± 5 | 94.2 ± 7.3 | 94.9 ± 19 | 116 ± 46 | 42.7 ± 9.8 | 105.7 ± 0.71 | 113 ± 7.7 | 110 ± 2.3 | 61.9 ± 11 | 102 ± 13 | 114.3 ± 0.95 | 94.3 ± 26 | 32.7 ± 7.6 | – | – | – | – | –
COc1cc(OC)c(/C=C/S(=O)(=O)Cc2ccc(OC)c(NCC(=O)O)c2)c(OC)c1 [Rigosertib] | 115 ± 13 | 18.8 ± 0.89 | 16.6 ± 2.9 | 16.3 ± 4.1 | 88.9 ± 21 | 5.08 ± 2.9 | 11 ± 1 | 11.1 ± 1.8 | 96.5 ± 1.7 | 70.2 ± 4 | 29.8 ± 11 | 29.5 ± 3.1 | 96.39 ± 0.69 | 44.2 ± 2.3 | 26.9 ± 2.6 | 24.8 ± 2.4 | 97.2 ± 1.3 | 94.6 ± 9.7 | 22.9 ± 3.4 | 21.6 ± 4.6 | – | – | – | – | –
CCc1c2c(nc3ccc(O)cc13)-c1cc3c(c(=O)n1C2)COC(=O)[C@]3(O)CC [SN38] | 39.7 ± 5.6 | 36.2 ± 4.4 | 25.4 ± 4.1 | – | 35 ± 16 | 23.2 ± 7.1 | 25 ± 0.91 | – | 77.6 ± 9.2 | 45.3 ± 2.9 | 31.9 ± 5.3 | – | 35.7 ± 5.1 | 19.6 ± 4.8 | 14.5 ± 6 | – | 38 ± 19 | 21.8 ± 3.3 | 19.5 ± 2 | – | 57.1 ± 2.3 | 67.7 ± 30 | 90.7 ± 2 | 97.2 ± 7.5 | 111 ± 8.8
CC(C)(C)c1cnc(CSc2cnc(NC(=O)C3CCNCC3)s2)o1 [SNS032] | 99.8 ± 5 | 85.6 ± 9.4 | 9.44 ± 2.4 | 28.7 ± 4 | 72.7 ± 6 | 89.5 ± 12 | 7.96 ± 5 | 14.9 ± 1.1 | 116 ± 11 | 79.3 ± 15 | 19.7 ± 0.32 | 34.4 ± 1.1 | 100 ± 19 | 81.3 ± 2.6 | 17.3 ± 1.6 | 27.8 ± 0.81 | 106 ± 3.3 | 75.8 ± 13 | 10 ± 2.3 | 12 ± 1.4 | – | – | – | – | –
CC(=O)Nc1nc(C)c(S(=O)(=O)Nc2ccc(C(O)(C(F)(F)F)C(F)(F)F)cc2)s1 [SR1001] | 108 ± 41 | 80.6 ± 15 | 82.9 ± 26 | 113 ± 64 | 104 ± 4.2 | 87.5 ± 13 | 120 ± 17 | 121 ± 3.7 | 111 ± 12 | 92.4 ± 17 | 97.8 ± 18 | 116 ± 32 | 91.5 ± 2.2 | 105 ± 5.6 | 111.7 ± 0.68 | 109 ± 16 | 117 ± 5.5 | 123 ± 15 | 106 ± 12 | 118 ± 29 | – | – | – | – | –
CC(C)(C)c1ccc(S(=O)(=O)NCc2ccc(C(=O)Nc3cccnc3)cc2)cc1 [STF31] | 112 ± 27 | 92.7 ± 8 | 50.2 ± 2 | 63.1 ± 33 | 97.4 ± 8.6 | 83.52 ± 0.49 | 74.8 ± 10 | 44.1 ± 5.7 | 101 ± 4.2 | 96.7 ± 4.5 | 85.6 ± 20 | 72.8 ± 18 | 90.7 ± 9.9 | 82.5 ± 12 | 93.2 ± 7.9 | 76.6 ± 10 | 110 ± 16 | 93.4 ± 15 | 61.7 ± 12 | 27.3 ± 3.5 | – | – | – | – | –
CN1CCN(CCOc2cc(OC3CCOCC3)c3c(Nc4c(Cl)ccc5c4OCO5)ncnc3c2)CC1 [Saracatinib] | 77.5 ± 1.3 | 97.6 ± 53 | 92.6 ± 28 | 48.2 ± 22 | 85.4 ± 45 | 95.9 ± 16 | 62.9 ± 18 | 32.6 ± 8 | 90.5 ± 32 | 85.8 ± 15 | 73.7 ± 11 | 48.3 ± 18 | 80.8 ± 18 | 87 ± 10 | 78.8 ± 13 | 70.5 ± 12 | 84.1 ± 37 | 70.3 ± 5.9 | 64.1 ± 5.6 | 33.9 ± 17 | – | – | – | – | –
Cn1cnc2c(F)c(Nc3ccc(Br)cc3Cl)c(C(=O)NOCCO)cc21 [Selumetinib] | 71 ± 10 | 67 ± 25 | 67.5 ± 21 | 59.2 ± 5.8 | 97.8 ± 51 | 90.1 ± 60 | 103 ± 8.6 | 73.3 ± 5.1 | 80.6 ± 8.9 | 67 ± 3.8 | 99.2 ± 31 | 80.9 ± 20 | 96.6 ± 6.1 | 85.3 ± 4.4 | 84.4 ± 8.8 | 92.3 ± 3.6 | 88.9 ± 25 | 74.2 ± 37 | 96.3 ± 23 | 57.1 ± 36 | – | – | – | – | –
CC(C)[C@H](O)C(=O)N[C@@H](C)C(=O)N[C@@H]1C(=O)N(C)CCc2ccccc21 [Semagacestat] | 112 ± 22 | 92 ± 28 | 89.7 ± 24 | 132 ± 19 | 112 ± 42 | 83.1 ± 31 | 72.2 ± 6.8 | 107 ± 42 | 92.3 ± 13 | 86.5 ± 12 | 113 ± 9.9 | 113 ± 23 | 107 ± 6.6 | 107 ± 4.2 | 118 ± 3.2 | 84.4 ± 1.2 | 126 ± 5.3 | 83.5 ± 15 | 91.7 ± 11 | 96.9 ± 12 | – | – | – | – | –
